The numbers were not newly measured in patent US20250339390A1 (priority 2018, published 2025), which cites them from elsewhere.

On to `O=NN(CCCl)C(=O)NCCCl` [Carmustine, 1,3-bis(2-chloroethyl)-1-nitrosourea], for which the solubility in water entry was “poorly soluble”.
